The nature of data set [1]: Therapeutic index, ratio of CC50 for cytotoxicity against HEK293T cells to IC50 for antiviral activity against human immunodeficiency virus expressed in HEK293T cells. It counts as toxicity, cell-based. The settings on record: read-out: Ratio CC50/IC50.
The test system of the next data set is HEK-293T. Nature of the data set: Cytotoxicity against HEK293T cells assessed as reduction in cell viability measured after 48 hrs by CellTiter 96 Aqueous One Solution reagent based cell proliferation assay. The note with it: human.
For the next data set, the target named is Cytochrome P450 2D6 (Homo sapiens, UniProt P10635). Nature of the data set: Inhibition of human recombinant CYP2D6 expressed in insect microsome using (3-[2-([…]-N-methylammonium)-ethyl]-7-methoxy-4-methylcoumarin iodide as a substrate incubated for 30 mins followed by addition of NADPH regenerating system measured immediately by fluorescence based analysis. It counts as ADME, microsomes.
Chain of Cytochrome P450 2D6 (P10635 whole entry): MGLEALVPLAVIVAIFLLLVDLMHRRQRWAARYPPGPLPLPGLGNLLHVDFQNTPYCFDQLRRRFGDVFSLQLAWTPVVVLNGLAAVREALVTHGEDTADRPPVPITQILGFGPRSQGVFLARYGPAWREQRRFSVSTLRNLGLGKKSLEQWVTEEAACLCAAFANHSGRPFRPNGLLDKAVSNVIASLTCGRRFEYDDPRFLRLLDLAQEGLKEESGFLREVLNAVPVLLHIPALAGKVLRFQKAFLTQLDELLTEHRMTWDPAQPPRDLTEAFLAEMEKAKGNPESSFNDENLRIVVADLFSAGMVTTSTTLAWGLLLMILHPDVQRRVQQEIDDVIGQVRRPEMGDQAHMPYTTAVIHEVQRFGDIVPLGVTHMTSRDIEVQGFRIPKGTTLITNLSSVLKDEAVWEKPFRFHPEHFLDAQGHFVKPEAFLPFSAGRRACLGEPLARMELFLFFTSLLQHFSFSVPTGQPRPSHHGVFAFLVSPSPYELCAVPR

The target in a further data set is Cytochrome P450 3A4 (Homo sapiens, UniProt P08684). Nature of the data set: Inhibition of human recombinant CYP3A4 expressed in insect microsome using 7-benzyloxy-4-trifluoromethylcoumarin as a substrate incubated for 30 mins followed by addition of NADPH regenerating system measured immediately by fluorescence based analysis. It counts as ADME, microsomes.
Chain of Cytochrome P450 3A4 (P08684 whole entry): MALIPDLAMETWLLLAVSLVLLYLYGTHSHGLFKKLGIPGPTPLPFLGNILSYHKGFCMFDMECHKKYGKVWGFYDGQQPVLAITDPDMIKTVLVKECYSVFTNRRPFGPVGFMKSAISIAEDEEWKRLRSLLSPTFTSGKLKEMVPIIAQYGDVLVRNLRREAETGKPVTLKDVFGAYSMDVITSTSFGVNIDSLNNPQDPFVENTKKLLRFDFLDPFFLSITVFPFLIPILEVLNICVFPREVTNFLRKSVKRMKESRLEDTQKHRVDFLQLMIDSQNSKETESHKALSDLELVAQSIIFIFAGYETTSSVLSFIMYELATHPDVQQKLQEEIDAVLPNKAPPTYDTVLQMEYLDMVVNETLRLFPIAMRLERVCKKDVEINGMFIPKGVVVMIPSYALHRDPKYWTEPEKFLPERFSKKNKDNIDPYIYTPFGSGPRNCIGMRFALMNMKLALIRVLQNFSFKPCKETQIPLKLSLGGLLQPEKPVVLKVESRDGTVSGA
Data set [2] relates to Human immunodeficiency virus. Nature of the data set: Antiviral activity against human immunodeficiency virus expressed in HEK293T cells coexpressing firefly luciferase gene incubated for 48 hrs by Bright-Glo luciferase assay. It counts as functional, organism-based. The settings on record: Human immunodeficiency virus 1, HEK-293T.
Data set [3] deals with Human immunodeficiency virus. Nature of the data set: Potency index, ratio of test compound IC50 to TXL IC50 for antiviral activity against human immunodeficiency virus expressed in HEK293T cells coexpressing firefly luciferase gene incubated for 48 hrs by Bright-Glo luciferase assay. It counts as functional.
The nature of data set [4]: Prodrug conversion in C57BL/6 mouse plasma assessed as AUC(0 to 24 hrs) of TFV metabolite at 10 mg/kg, po measured up to 24 hrs by LC-MS/MS analysis. It counts as ADME, organism-based. The arrangement: time < 24 hrs, dose 10 mg/kg, route po. The note with it: in vivo.
Data set [5] in a line: Ratio of prodrug AUC(0 to 24 hrs) to TFV AUC(0 to 24 hrs) in C57BL/6 mouse plasma at 10 mg/kg, po measured up to 24 hrs by LC-MS/MS analysis. Type of data set: ADME, organism-based. The settings on record: in vivo.
Data set [6] in a line: Tmax in C57BL/6 mouse liver at 10 mg/kg, po measured up to 24 hrs by LC-MS/MS analysis. Type of data set: ADME, organism-based. The note with it: mouse, in vivo, po, 10 mg/kg, 24 h.
Data set [7] can be described thus: Cmax in C57BL/6 mouse liver at 10 mg/kg, po measured up to 24 hrs by LC-MS/MS analysis. It counts as ADME, organism-based. Set-up: time < 24 hrs, dose 10 mg/kg, route po. The settings on record: in vivo.
The nature of data set [8]: AUC(0 to 24 hrs) in C57BL/6 mouse liver at 10 mg/kg, po measured up to 24 hrs by LC-MS/MS analysis. The arrangement: time < 24 hrs, dose 10 mg/kg, route po. The note with it: in vivo. It counts as ADME, organism-based.
Data set [9] in a line: Prodrug conversion in C57BL/6 mouse liver assessed as AUC(0 to 24 hrs) of TFV metabolite at 10 mg/kg, po measured up to 24 hrs by LC-MS/MS analysis. Type of data set: ADME, organism-based. The note with it: in vivo. The arrangement: time < 24 hrs, dose 10 mg/kg, route po.
Data set [10] is described as follows: Prodrug conversion in C57BL/6 mouse liver assessed as Cmax of TFV metabolite at 10 mg/kg, po measured up to 24 hrs by LC-MS/MS analysis. Type of data set: ADME, organism-based. Set-up: dose 10 mg/kg, time < 24 hrs, route po. The settings on record: in vivo.
A short description of data set [11]: Tmax in C57BL/6 mouse plasma at 10 mg/kg, po measured up to 24 hrs by LC-MS/MS analysis. It counts as ADME, organism-based. The settings on record: in vivo.
A short description of data set [12]: Cmax in C57BL/6 mouse plasma at 10 mg/kg, po measured up to 24 hrs by LC-MS/MS analysis. It counts as ADME, organism-based. The arrangement: dose 10 mg/kg, time < 24 hrs, route po. The settings on record: in vivo.
A short description of data set [13]: AUC(0 to 24 hrs) in C57BL/6 mouse plasma at 10 mg/kg, po measured up to 24 hrs by LC-MS/MS analysis. Type of data set: ADME, organism-based. The arrangement: time < 24 hrs, dose 10 mg/kg, route po. The settings on record: in vivo.
Data set [14] is described as follows: Half life in C57BL/6 mouse plasma at 10 mg/kg, po measured up to 24 hrs by LC-MS/MS analysis. It counts as ADME, organism-based. The settings on record: in vivo.
Data set [15] can be described thus: Prodrug conversion in C57BL/6 mouse plasma assessed as Tmax of TFV metabolite at 10 mg/kg, po measured up to 24 hrs by LC-MS/MS analysis. Type of data set: ADME, organism-based. The settings on record: in vivo.
Data set [16] is described as follows: Prodrug conversion in C57BL/6 mouse plasma assessed as Cmax of TFV metabolite at 10 mg/kg, po measured up to 24 hrs by LC-MS/MS analysis. It counts as ADME, organism-based. Set-up: time < 24 hrs, dose 10 mg/kg, route po. The note with it: in vivo.
A short description of data set [17]: Prodrug conversion in C57BL/6 mouse liver assessed as Tmax of TFV metabolite at 10 mg/kg, po measured up to 24 hrs by LC-MS/MS analysis. It counts as ADME, organism-based. The note with it: in vivo.
Data set [18] can be described thus: Metabolic stability in human liver microsomes assessed as half life at 3 uM measured up to 30 min in presence of NADPH by LC-MS/MS analysis. Type of data set: ADME, Microsome. The settings on record: 0.5 h. A general note: Liver microsomes are vesicles of endoplasmic reticulum, rich in cytochrome P450 enzymes.
Data set [19] is described as follows: Ratio of prodrug AUC(0 to 24 hrs) to TFV AUC(0 to 24 hrs) in C57BL/6 mouse liver at 10 mg/kg, po measured up to 24 hrs by LC-MS/MS analysis. Type of data set: ADME, organism-based. The settings on record: in vivo.
Data set [20] in a line: Plasma protein binding in C57BL/6 mouse at 10 mg/kg, po measured up to 24 hrs by LC-MS/MS. The note with it: read-out: PPB. It counts as ADME, organism-based.
Data set [21] is described as follows: Cmax in HBV patients at 50 mg, po qa administered for 28 days. It counts as ADME, organism-based. The arrangement: dose 50 mg, time 28 day, route po. The note with it: human, in vivo.
Data set [22] is described as follows: Tmax in HBV patients at 50 mg, po qa administered for 28 days. The note with it: human, in vivo, time 28 day. Type of data set: ADME, organism-based.
Data set [23] is described as follows: AUC(0 to 24 hrs) in HBV patients at 50 mg, po qa administered for 28 days. It counts as ADME, organism-based. The arrangement: time 28 day, dose 50 mg, route po. The note with it: human, in vivo.
Data set [24] is described as follows: Half life in HBV patients at 50 mg, po qa administered for 28 days. It counts as ADME, organism-based. The note with it: human, in vivo, time 28 day.
The nature of data set [25]: Prodrug conversion in […] patients assessed as Cmax of TFV metabolite at 50 mg, po qa administered for 28 days. It counts as ADME, organism-based. The arrangement: time 28 day, dose 50 mg, route po. The settings on record: human, in vivo, 672 h.
The nature of data set [26]: Prodrug conversion in […] patients assessed as AUC(0 to 24 hrs) of TFV metabolite at 50 mg, po qa administered for 28 days. It counts as ADME, organism-based. Set-up: time 28 day, dose 50 mg, route po. The settings on record: human, in vivo, 672 h.
The subject of data set [27] is Human immunodeficiency virus. The data set can be described thus: Potency index, ratio of TFV IC50 to TXL IC50 for antiviral activity against human immunodeficiency virus expressed in HEK293T cells coexpressing firefly luciferase gene incubated for 48 hrs by Bright-Glo luciferase assay. Type of data set: functional.
The nature of data set [28]: Ratio of test compound t1/2 to TXL t1/2 for metabolic stability in human liver microsomes assessed as half life at 3 uM measured up to 30 min in presence of NADPH by LC-MS/MS analysis. Type of data set: ADME, Microsome. The settings on record: 0.5 h.

As usually defined, the CC50 is the concentration giving 50% cytotoxicity. Usually IC50 stands for the midpoint of a concentration-inhibition curve. The AUC is the area under the concentration-time curve, a measure of exposure. The Tmax is the time at which the peak concentration occurs. What is called Cmax is the peak of the concentration-time curve. What is called half-life is the time in which the quantity being followed falls by half. A high value points to slow decline.

With `CCCCCCCCCCCCCCCCCCCCOP(=O)(O)CO[C@H](C)Cn1cnc2c(N)ncnc21.N`, the selectivity ratio in [1] turned out to be 104. Further, the CC50 in the data set on HEK-293T came out at 13.2 µM. Further, the figures for the IC50 (on Cytochrome P450 2D6; at Cytochrome P450 3A4; in [2]) were 33.2 µM, 50 µM and 0.127 µM, respectively. Besides, the “Ratio IC50” value in data set [3] is given as 7.
Regarding `CCCCCCCCCCCCCCCCOCCCOP(=O)(O)CO[C@H](C)Cn1cnc2c(N)ncnc21.N`, the AUC in [4] amounted to 132 ng·h/mL; in data set [8] it was 4970 ng·h/mL; in data set [9], 26100 ng·h/mL; in data set [13], 301 ng·h/mL; in [26], 136 ng·h/mL. The figures for the “Ratio AUC” value in data set [5] and in data set [19] were 2.29 and 0.19, respectively. Moreover, the Tmax in data set [6] came to 1 h; in data set [11] it was 1 h; in data set [15], 2 h; in [17], 17.3 h; in [22], 1.5 h. In addition, the Cmax in data set [7] was found to be 2730 ng/mL; in [10], 1460 ng/mL; in [12], 125 ng/mL; in [16], 19.6 ng/mL; in data set [21] it was 51 ng/mL; in data set [25], 8.5 ng/mL. The t1/2 in [14] was 2.92 h; in [18] it was 0.7 h. In addition, in data set [1], the selectivity ratio came to 5420. Further, the CC50 with HEK-293T was 97.6 µM. Besides, in data set [20], the fraction unbound at 24 h was below 0.001. In data set [23], this molecule showed an AUC at 672 h of 110 ng·h/mL. The molecule further showed a half-life in data set [24] of 1.5 h. The “Ratio IC50” value in [27] worked out at 89.
`C#CCCCCCCCCCCCCCOP(=O)(O)CO[C@H](C)Cn1cnc2c(N)ncnc21.N`: the selectivity ratio in [1] was above 3. Moreover, the CC50 with HEK-293T is above 100 µM. This molecule came in with an IC50 in [2] of 28.6 µM. The t1/2 in data set [18] was determined as 1.57 h. In addition, the Ratio result in data set [28] is on record as “>= 3”.
